Assay: Blood glucose level in a diabetic patient (mercy treatment)
Assay type: in vivo, human
Settings: Diamicron 80 mg, 2 tablets every morning, before OEGJ
Procedure: Based on the above-mentioned rationale, the possibility of using OEGJ for the treatment of diabetes was tested in diabetics on the basis of mercy treatment. A person was first diagnosed with diabetes before undergoing hemorrhoid surgery a year before treatment. Their blood glucose level at that time was 24.0 mmol/L. They were put on insulin treatment for a week and started to take diabetes medicine (Diamicron 80 mg, 2 tablets every morning under fasting condition).

Compound: Cc1ccc(S(=O)(=O)NC(=O)NN2CC3CCCC3C2)cc1 (stereo not shown) [Diamicron]
- average blood glucose level during six-month period on the medication: 9.97 mmol/L
